{"source": "patent US20050222207A1", "about": "“Phosphodiesterase 4 inhibitors, including N-substituted diarylamine analogs” (priority 2003, published 2005)", "key": {"rats [1]": {"test_system": "rats", "assay": "Passive avoidance in rats, in vivo test for learning and memory (MK-801 amnesia)", "design": "species or system rat", "conditions": "MK-801 0.1 mg/kg, retention test 24 hours after shock, compared to vehicle, p<0.001", "protocol": "The test was performed as previously described (Zhang, H.-T., Crissman, A. M., Dorairaj, N. R., Chandler, L. J., and O'Donnell, J. M., Neuropsychopharmacology, 2000, 23, 198-204.). The apparatus (Model E10-16SC, Coulbourn Instruments, Allentown, Pa.) consisted of a two-compartment chamber with an illuminated compartment connected to a darkened compartment by a guillotine door. The floor of the darkened compartment consisted of stainless steel rods through which an electric foot-shock could be delivered from a constant current source. All experimental groups were first habituated to the apparatus the day before the start of the experiment. During the training, the rat (Male Spraque-Dawley (Harlan) weighing 250 to 350 g) was placed in the illuminated compartment facing away from the closed guillotine door for 1 minute before the door was raised. The latency for entering the darkened compartment was recorded. After the rat entered the darkened compartment, the door was closed and a 0.5 mA electric shock was administered for 3 seconds. […] The latency for entering the darkened compartment was recorded for up to 180 seconds, at which time the trial was terminated.\n(§1) All data were analyzed by analyses of variance (ANOVA); individual comparisons were made using Kewman-Keuls tests. […]"}, "rats [2]": {"test_system": "rats", "assay": "Radial arm maze task in rats, in vivo test for learning and memory (MK-801 amnesia)", "design": "species or system rat", "conditions": "MK-801 0.1 mg/kg i.p., compared to control, p<0.01", "protocol": "The test was performed as previously described (Zhang, H.-T., Crissman, A. M., Dorairaj, N. R., Chandler, L. J., and O'Donnell, J. M., Neuropsychopharmacology, 2000, 23, 198-204.). Five days after initial housing, rats (male Spraque-Dawley (Harlan) weighing 250 to 350 g) were placed in the eight-arm radial maze (each arm was 60×10×12 cm high; the maze was elevated 70 cm above the floor) for acclimation for two days. Rats were then placed individually in the center of the maze for 5 minutes with food pellets placed close to the food wells, and then, the next day, in the wells at the end of the arms; 2 sessions a day were conducted. Next, four randomly selected arms were then baited with one pellet of food each. The rat was restricted to the center platform (26 cm in diameter) for 15 seconds and then allowed to move freely throughout the maze until it collected all pellets of food or 10 minutes passed, whichever came first. Four parameters were recorded: 1) working memory errors, i.e., entries into baited arms that had already been visited during the same trial; 2) reference memory errors, i.e., entries into unbaited arms; 3) total arm entries; and 4) the test duration (seconds), i.e., the time spent in the collection of all the pellets in the maze. […]\nas §1"}}}
{"smiles": "COc1cc(N(Cc2cncs2)c2ccc(C(=O)O)cc2)ccc1C(N)=O", "values": [{"measurement": "melting point", "value": "196.7 to 196.8", "unit": "°C"}]}
{"smiles": "C[C@]12N[C@H](Cc3ccccc31)c1ccccc12", "note": "[MK-801]", "values": [{"measurement": "latency for entering the darkened compartment", "setting": "rats [1]", "value": "markedly reduced"}, {"measurement": "frequency of reference memory errors", "setting": "rats [2]", "value": "increased"}, {"measurement": "frequency of working memory errors", "setting": "rats [2]", "value": "increased"}]}
